{"source": "paper PMC10755728", "about": "“Inhibitors of the Elastase LasB for the Treatment of Pseudomonas aeruginosa Lung Infections” (ACS Central Science, 2023)", "key": {"[1]": {"assay": "Microsomal stability, rat liver microsomes", "format": "in vitro ADME", "conditions": "Wistar, pooled liver microsomes"}, "[2]": {"assay": "Plasma stability, rat", "format": "in vitro ADME", "conditions": "Wistar, pooled plasma, species profiling, read-out: Plasma T1/2 Rat (Wistar)"}, "[3]": {"assay": "Plasma stability, minipig", "format": "in vitro ADME", "conditions": "Göttingen, pooled plasma, species profiling, read-out: Plasma T1/2 Minipig (Göttingen)"}, "[4]": {"assay": "Plasma stability, mouse", "format": "in vitro ADME"}, "[5]": {"assay": "Metabolic stability in mouse liver S9 fraction", "format": "in vitro ADME"}, "[6]": {"assay": "Lipophilicity determination (LogD7.4, HPLC-MS)", "format": "physicochemical", "conditions": "pH 7.4, pH 7.4, chromatographic"}, "[7]": {"assay": "Microsomal stability, mouse liver microsomes", "format": "in vitro ADME", "conditions": "C57BL6, mouse, pooled liver microsomes"}, "[8]": {"target": "T1, LasB (Pseudomonas aeruginosa, UniProt Q02RJ6)", "T1 construct": "made in house", "T1 sequence (Q02RJ6 198-498)": "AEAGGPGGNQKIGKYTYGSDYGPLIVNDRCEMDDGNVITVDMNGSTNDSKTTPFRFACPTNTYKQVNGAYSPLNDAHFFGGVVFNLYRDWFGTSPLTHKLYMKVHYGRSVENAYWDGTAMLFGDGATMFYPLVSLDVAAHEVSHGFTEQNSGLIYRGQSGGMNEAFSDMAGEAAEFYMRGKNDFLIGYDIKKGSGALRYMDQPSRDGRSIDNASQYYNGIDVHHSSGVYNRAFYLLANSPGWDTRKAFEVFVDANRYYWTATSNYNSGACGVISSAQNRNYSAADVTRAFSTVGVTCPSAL", "assay": "biochemical", "format": "biochemical"}, "[9]": {"assay": "Microsomal stability, minipig liver microsomes", "format": "in vitro ADME", "conditions": "Göttingen, pooled liver microsomes"}, "[10]": {"assay": "Metabolic stability in human liver S9 fraction", "format": "in vitro ADME"}}}
{"smiles": "CC(C)CC(C(=O)Nc1ccc(F)cc1)P(=O)(O)O", "note": "(stereo not drawn) [Compound 4h]", "values": [{"measurement": "microsomal CLint", "setting": "[1]", "result": "< 11.6", "unit": "µL/min/mg"}, {"measurement": "half-life", "setting": "[2]", "result": "> 4", "unit": "h"}, {"measurement": "half-life", "setting": "[3]", "result": "> 4", "unit": "h"}, {"measurement": "half-life", "setting": "[4]; C57BL6, mouse, pooled plasma, species profiling, read-out: Plasma T1/2 Mouse (C57BL6)", "result": "> 4", "unit": "h"}, {"measurement": "half-life at 1 μM", "setting": "[4]; mouse plasma, read-out: Plasma T1/2 Mouse", "result": "> 2.5", "unit": "h"}, {"measurement": "microsomal CLint at 1 μM", "setting": "[5]", "result": "< 5.8", "unit": "µL/min/mg"}, {"measurement": "chromatographic logD", "setting": "[6]", "result": -0.79}, {"measurement": "microsomal CLint", "setting": "[7]", "result": "< 11.6", "unit": "µL/min/mg"}, {"measurement": "IC50", "setting": "[8]; FRET-based assay, read-out: LasB IC50", "result": "92.7 ± 21.6", "unit": "nM"}, {"measurement": "fold less active than chlorine and bromine compounds", "setting": "[8]; vs 4i and 4j", "result": 2, "unit": "fold"}, {"measurement": "microsomal CLint", "setting": "[9]", "result": "< 11.6", "unit": "µL/min/mg"}, {"measurement": "microsomal CLint at 1 μM", "setting": "[10]", "result": "< 5.8", "unit": "µL/min/mg"}]}
